From ChEMBL document CHEMBL1201862, “PubChem BioAssay data set” (2004)
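Method: 48-hour compound exposure of cells in 96-well plates, five concentrations, linear interpolation of endpoints. The concentration for 50% growth inhibition is given as GI50.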 Activity calls are given as the source filed them. Rule as the data show it: active = GI50 up to about 1.1 µM and inactive = higher.

Tests used:
Experiment in all cases: NCI anticancer screen, dose series, 48 h
[1] = tested on: EKVX
[2] = tested on: HCT-116
[3] = tested on: K562
[4] = tested on: OVCAR-8
[5] = tested on: TK-10
[6] = tested on: ACHN
[7] = tested on: M14
[8] = tested on: RXF 393
[9] = tested on: KM12
[10] = tested on: UO-31
[11] = tested on: SF-295
[12] = tested on: NCI/ADR-RES
[13] = tested on: MDA-MB-435
[14] = tested on: RPMI-8226
[15] = tested on: T47D
[16] = tested on: Hs-578T
[17] = tested on: MDA-MB-231
[18] = tested on: LOX IMVI
[19] = tested on: UACC-257
[20] = tested on: HOP-62
[21] = tested on: COLO 205
[22] = tested on: A549
[23] = tested on: Malme-3M
[24] = tested on: MCF7
[25] = tested on: NCI-H522
[26] = tested on: SK-OV-3
[27] = tested on: CCRF-CEM
[28] = tested on: SN12C
[29] = tested on: PC-3
[30] = tested on: 786-0
[31] = tested on: SK-MEL-28
[32] = tested on: OVCAR-3
[33] = tested on: U-251
[34] = tested on: HOP-92
[35] = tested on: UACC-62
[36] = tested on: MDA-N
[37] = tested on: SK-MEL-2
[38] = tested on: SF-268
[39] = tested on: DU-145
[40] = tested on: SNB-19
[41] = tested on: NCI-H460
[42] = tested on: MOLT-4
[43] = tested on: OVCAR-5
[44] = tested on: SF-539
[45] = tested on: HL-60
[46] = tested on: HCC 2998
[47] = tested on: NCI-H23
[48] = tested on: SW-620
[49] = tested on: HCT-15
[50] = tested on: IGROV-1
[51] = tested on: SK-MEL-5
[52] = tested on: OVCAR-4
[53] = tested on: CAKI-1
[54] = tested on: SNB-75
[55] = tested on: A498
[56] = tested on: HT-29
[57] = tested on: SR
[58] = tested on: BT-549
[59] = tested on: NCI-H226

Compound: Cc1cccc2c(N)c3cccc(C(=O)NCCNCCN)c3nc12
- GI50 [1]: 10.4 µM (inactive)
- GI50 [2]: 2.52 µM (inactive)
- GI50 [3]: 8.28 µM (inactive)
- GI50 [4]: 0.995 µM (active)
- GI50 [5]: 22.3 µM (inactive)
- GI50 [6]: 3.8 µM (inactive)
- GI50 [7]: 28.7 µM (inactive)
- GI50 [8]: 12.6 µM (inactive)
- GI50 [9]: 3.89 µM (inactive)
- GI50 [10]: 12.3 µM (inactive)
- GI50 [11]: 3.68 µM (inactive)
- GI50 [12]: 27.9 µM (inactive)
- GI50 [13]: 18.7 µM (inactive)
- GI50 [14]: 9.55 µM (inactive)
- GI50 [15]: 7.36 µM (inactive)
- GI50 [16]: 1.24 µM (inactive)
- GI50 [17]: 1.96 µM (inactive)
- GI50 [18]: 5.28 µM (inactive)
- GI50 [19]: 26.2 µM (inactive)
- GI50 [20]: 0.533 µM (active)
- GI50 [21]: 2.71 µM (inactive)
- GI50 [22]: 0.203 µM (active)
- GI50 [23]: 15.4 µM (inactive)
- GI50 [24]: 0.369 µM (active)
- GI50 [25]: 0.0826 µM (active)
- GI50 [26]: 26.9 µM (inactive)
- GI50 [27]: 0.448 µM (active)
- GI50 [28]: 0.179 µM (active)
- GI50 [29]: 10.8 µM (inactive)
- GI50 [30]: 0.0644 µM (active)
- GI50 [31]: 15.8 µM (inactive)
- GI50 [32]: 21.9 µM (inactive)
- GI50 [33]: 0.736 µM (active)
- GI50 [34]: 7.6 µM (inactive)
- GI50 [35]: 7.4 µM (inactive)
- GI50 [36]: 16 µM (inactive)
- GI50 [37]: 13 µM (inactive)
- GI50 [38]: 0.0698 µM (active)
- GI50 [39]: 2.62 µM (inactive)
- GI50 [40]: 1.16 µM (inactive)
- GI50 [41]: 0.558 µM (active)
- GI50 [42]: 0.0649 µM (active)
- GI50 [43]: 22.8 µM (inactive)
- GI50 [44]: 1.61 µM (inactive)
- GI50 [45]: 8.83 µM (inactive)
- GI50 [46]: 6.79 µM (inactive)
- GI50 [47]: 0.598 µM (active)
- GI50 [48]: 8.02 µM (inactive)
- GI50 [49]: 12.4 µM
- GI50 [50]: 5.01 µM (inactive)
- GI50 [51]: 5.11 µM (inactive)
- GI50 [52]: 2.67 µM (inactive)
- GI50 [53]: 3.8 µM (inactive)
- GI50 [54]: 0.631 µM (active)
- GI50 [55]: 23.7 µM (inactive)
- GI50 [56]: 2.9 µM (inactive)
- GI50 [57]: 8.09 µM (inactive)
- GI50 [58]: 14.6 µM (inactive)

Compound: CC1(C)N=[N+]([O-])C1(C)C
- GI50 [1]: > 100 µM (inactive)
- GI50 [2]: > 100 µM (inactive)
- GI50 [3]: > 100 µM (inactive)
- GI50 [4]: > 100 µM (inactive)
- GI50 [5]: > 100 µM (inactive)
- GI50 [7]: > 100 µM (inactive)
- GI50 [8]: > 100 µM (inactive)
- GI50 [9]: > 100 µM (inactive)
- GI50 [10]: > 100 µM (inactive)
- GI50 [12]: > 100 µM (inactive)
- GI50 [13]: > 100 µM (inactive)
- GI50 [14]: > 100 µM (inactive)
- GI50 [15]: > 100 µM (inactive)
- GI50 [16]: > 100 µM (inactive)
- GI50 [17]: > 100 µM (inactive)
- GI50 [18]: > 100 µM (inactive)
- GI50 [19]: > 100 µM (inactive)
- GI50 [21]: > 100 µM (inactive)
- GI50 [22]: > 100 µM (inactive)
- GI50 [23]: > 100 µM (inactive)
- GI50 [24]: > 100 µM (inactive)
- GI50 [25]: > 100 µM (inactive)
- GI50 [26]: > 100 µM (inactive)
- GI50 [27]: > 100 µM (inactive)
- GI50 [59]: > 100 µM (inactive)
- GI50 [28]: > 100 µM (inactive)
- GI50 [29]: > 100 µM (inactive)
- GI50 [30]: > 100 µM (inactive)
- GI50 [31]: > 100 µM (inactive)
- GI50 [32]: > 100 µM (inactive)
- GI50 [33]: > 100 µM (inactive)
- GI50 [35]: > 100 µM (inactive)
- GI50 [36]: > 100 µM (inactive)
- GI50 [37]: > 100 µM (inactive)
- GI50 [38]: > 100 µM (inactive)
- GI50 [39]: > 100 µM (inactive)
- GI50 [40]: > 100 µM (inactive)
- GI50 [41]: > 100 µM (inactive)
- GI50 [42]: > 100 µM (inactive)
- GI50 [43]: > 100 µM (inactive)
- GI50 [44]: > 100 µM (inactive)
- GI50 [45]: > 100 µM (inactive)
- GI50 [46]: > 100 µM (inactive)
- GI50 [47]: > 100 µM (inactive)
- GI50 [48]: > 100 µM (inactive)
- GI50 [49]: > 100 µM
- GI50 [50]: > 100 µM (inactive)
- GI50 [51]: > 100 µM (inactive)
- GI50 [52]: > 100 µM (inactive)
- GI50 [53]: > 100 µM (inactive)
- GI50 [54]: > 100 µM (inactive)
- GI50 [55]: > 100 µM (inactive)
- GI50 [56]: > 100 µM (inactive)
- GI50 [57]: > 100 µM (inactive)
- GI50 [58]: > 100 µM (inactive)

Compound: CO/C=C/C=C(\C#N)C(=O)OC
- GI50 [1]: > 100 µM (inactive)
- GI50 [2]: > 100 µM (inactive)
- GI50 [3]: > 100 µM (inactive)
- GI50 [4]: > 100 µM (inactive)
- GI50 [5]: > 100 µM (inactive)
- GI50 [6]: > 100 µM (inactive)
- GI50 [9]: > 100 µM (inactive)
- GI50 [10]: > 100 µM (inactive)
- GI50 [11]: > 100 µM (inactive)
- GI50 [12]: > 100 µM (inactive)
- GI50 [13]: > 100 µM (inactive)
- GI50 [14]: > 100 µM (inactive)
- GI50 [15]: > 100 µM (inactive)
- GI50 [16]: > 100 µM (inactive)
- GI50 [17]: > 100 µM (inactive)
- GI50 [18]: > 100 µM (inactive)
- GI50 [19]: > 100 µM (inactive)
- GI50 [20]: > 100 µM (inactive)
- GI50 [21]: > 100 µM (inactive)
- GI50 [22]: > 100 µM (inactive)
- GI50 [23]: > 100 µM (inactive)
- GI50 [24]: > 100 µM (inactive)
- GI50 [25]: > 100 µM (inactive)
- GI50 [26]: > 100 µM (inactive)
- GI50 [27]: 26.3 µM (inactive)
- GI50 [59]: > 100 µM (inactive)
- GI50 [28]: > 100 µM (inactive)
- GI50 [29]: > 100 µM (inactive)
- GI50 [30]: > 100 µM (inactive)
- GI50 [31]: > 100 µM (inactive)
- GI50 [32]: > 100 µM (inactive)
- GI50 [33]: > 100 µM (inactive)
- GI50 [34]: > 100 µM (inactive)
- GI50 [35]: > 100 µM (inactive)
- GI50 [36]: > 100 µM (inactive)
- GI50 [37]: > 100 µM (inactive)
- GI50 [38]: > 100 µM (inactive)
- GI50 [39]: > 100 µM (inactive)
- GI50 [40]: > 100 µM (inactive)
- GI50 [41]: > 100 µM (inactive)
- GI50 [42]: 16.9 µM (inactive)
- GI50 [43]: > 100 µM (inactive)
- GI50 [44]: > 100 µM (inactive)
- GI50 [46]: > 100 µM (inactive)
- GI50 [47]: > 100 µM (inactive)
- GI50 [48]: > 100 µM (inactive)
- GI50 [49]: > 100 µM
- GI50 [50]: > 100 µM (inactive)
- GI50 [51]: > 100 µM (inactive)
- GI50 [52]: > 100 µM (inactive)
- GI50 [53]: > 100 µM (inactive)
- GI50 [54]: 60.3 µM (inactive)
- GI50 [55]: > 100 µM (inactive)
- GI50 [56]: > 100 µM (inactive)
- GI50 [57]: > 100 µM (inactive)
- GI50 [58]: > 100 µM (inactive)
